These results are taken from patent US20050043346A1, “Pyridylpyrrole derivatives active as kinase inhibitors” (Pharmacia Italia S.p.A., priority 2003, published 2005).

Molecules are shown by their SMILES. pIC50: −log10 of the molar value. Several values for one entry are separate records, joined by “and”; a condition that tells them apart may be missing. Identical values can stand only once. Counter-ions that a name gives are not always drawn.

Cdc7/Dbf4, sequence (O00311 whole entry): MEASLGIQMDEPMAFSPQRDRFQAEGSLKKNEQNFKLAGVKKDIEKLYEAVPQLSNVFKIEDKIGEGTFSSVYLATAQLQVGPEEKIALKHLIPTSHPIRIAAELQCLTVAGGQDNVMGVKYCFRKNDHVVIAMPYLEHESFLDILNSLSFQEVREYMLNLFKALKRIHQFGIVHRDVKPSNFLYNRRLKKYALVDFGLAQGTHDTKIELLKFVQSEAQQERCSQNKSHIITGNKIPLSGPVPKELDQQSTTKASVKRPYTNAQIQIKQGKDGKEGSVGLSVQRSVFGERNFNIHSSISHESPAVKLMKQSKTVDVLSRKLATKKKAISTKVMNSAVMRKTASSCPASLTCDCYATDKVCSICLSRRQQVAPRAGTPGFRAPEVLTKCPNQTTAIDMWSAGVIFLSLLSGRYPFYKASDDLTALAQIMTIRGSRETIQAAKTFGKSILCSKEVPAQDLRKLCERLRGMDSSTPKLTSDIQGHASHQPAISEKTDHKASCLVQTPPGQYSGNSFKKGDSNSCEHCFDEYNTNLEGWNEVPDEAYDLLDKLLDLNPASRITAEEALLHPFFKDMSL
Cdc7/Dbf4, sequence (Q9UBU7 whole entry partner): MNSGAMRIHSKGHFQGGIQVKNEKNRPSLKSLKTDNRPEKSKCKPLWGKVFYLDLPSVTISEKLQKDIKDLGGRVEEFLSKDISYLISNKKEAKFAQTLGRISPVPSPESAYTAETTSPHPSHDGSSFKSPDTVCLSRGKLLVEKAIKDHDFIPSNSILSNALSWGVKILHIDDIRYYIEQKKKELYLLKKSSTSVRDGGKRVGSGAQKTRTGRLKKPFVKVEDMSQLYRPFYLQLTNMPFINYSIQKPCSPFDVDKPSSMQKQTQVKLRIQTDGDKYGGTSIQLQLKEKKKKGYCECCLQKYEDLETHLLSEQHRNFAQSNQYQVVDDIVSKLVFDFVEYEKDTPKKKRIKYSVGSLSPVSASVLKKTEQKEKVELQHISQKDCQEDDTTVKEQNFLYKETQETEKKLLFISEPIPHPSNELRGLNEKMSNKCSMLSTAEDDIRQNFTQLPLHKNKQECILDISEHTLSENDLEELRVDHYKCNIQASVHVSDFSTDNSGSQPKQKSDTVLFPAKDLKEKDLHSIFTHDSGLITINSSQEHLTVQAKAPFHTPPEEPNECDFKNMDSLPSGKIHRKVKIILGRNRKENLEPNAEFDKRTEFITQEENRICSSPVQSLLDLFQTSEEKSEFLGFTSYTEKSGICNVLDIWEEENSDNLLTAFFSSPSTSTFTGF

One test concerns the target Cdc7/Dbf4 (Homo sapiens, UniProt O00311). Description: Inhibition assay of Cdc7/Dbf4 activity (Dowex resin capture, MCM2 substrate). Type of test: biochemical. The note with it: Cdc7/Dbf4, MCM2 substrate 6 μM, ATP 2 μM. As to the method: The inhibiting activity of putative Cdc7 inhibitors and the potency of selected compounds is determined through a method of assay based on the use of Dowex resin capture technology. The assay consists of the transfer of radioactivity labeled phosphate moiety by the kinase to an acceptor substrate. The resulting 33P-labeled product is separated from unreacted tracer, transferred into a scintillation cocktail and light emitted is measured in a scintillation counter.
The inhibition assay of Cdc7/Dbf4 activity is performed according to the following protocol. The MCM2 substrate is trans-phosphorylated by the Cdc7/Dbf4 complex in the presence of ATP traced with γ^33-ATP. The reaction is stopped by addition of Dowex resin in the presence of formic acid. Dowex resin particles capture unreacted γ^33-ATP and drag it to the bottom of the well while ^33P phosphorylated MCM2 substrate remains in solution. The supernatant is collected, transferred into Optiplate plates and the extent of substrate phosphorylation is evaluated by β counting.
The inhibition assay of Cdc7/Dbf4 activity was performed in 96 wells plate according to the following protocol.
The solvent for test compounds contained 3% DMSO. (final concentration 1%) • 10 μl substrate MCM2 (6 μM final concentration), a mixture of cold ATP (2 μM final concentration) and radioactive ATP (1/5000 molar ratio with cold ATP). • 10 μl enzyme (Cdc7/Dbf4, 2 nM final concentration) that started the reaction. The buffer of the reaction consisted in 50 mM HEPES pH 7.9 containing 15 mM MgCl2, 2 mM DTT, 3 μM NaVO3, 2 mM glycerophosphate and 0.2 mg/ml BSA.
After incubation for 60 minutes at room temperature, the reaction was stopped by adding to each well 150 μl of Dowex resin in the presence of 150 mM formic acid. After another 60 min incubation, 50 μL of suspension were withdrawn and transferred into 96-well OPTIPLATEs containing 150 μl of MicroScint 40 (Packard); after 5-10 minutes shaking the plates were read for 1 min in a Packard TOP-Count radioactivity reader.
Experimental data were analyzed by the computer program Assay Explorer using the four parameter logistic equation: y=bottom+(top−bottom)/(1+10^((log IC50−x)*slope)) where x is the logarithm of the inhibitor concentration, y is the response; y starts at bottom and goes to top with a sigmoid shape.
Regarding `O=C1NC(Cc2ccccc2)Cc2[nH]c(-c3ccncc3)cc21` (single isomer, unassigned) [(6R or 6S)-6-benzyl-2-pyridin-4-yl-1,5,6,7-tetrahydro-4H-pyrrolo[3,2-c]pyridin-4-one], the pIC50 (commonly the IC50 on a negative log10 scale, so that one unit is a factor of ten) is 7.70 and 8.05.
In the case of `CC1CNC(=O)c2cc(-c3ccncc3)[nH]c21` (single isomer, unassigned) [(7R or 7S)-7-methyl-2-pyridin-4-yl-1,5,6,7-tetrahydro-4H-pyrrolo[3,2-c]pyridin-4-one], the pIC50 was 8.40 and 8.15.
Regarding `O=C1NCCc2[nH]c(-c3ccnc4[nH]ccc34)cc21` [2-(1H-pyrrolo[2,3-b]pyridin-4-yl)-1,5,6,7-tetrahydro-4H-pyrrolo[3,2-c]pyridin-4-one hydrochloride], the pIC50 is 7.80.
Consider `O=C1NCCc2[nH]c(-c3ccncc3F)cc21` [2-(3-fluoropyridin-4-yl)-1,5,6,7-tetrahydro-4H-pyrrolo[3,2-c]pyridin-4-one hydrochloride], for which the negative logarithm of the IC50 (pIC50) was 8.10.
In turn, `O=C1NCC2(CC2)c2[nH]c(-c3ccncc3)cc21` [2′-pyridin-4-yl-5′,6′-dihydrospiro[cyclopropane-1,7′-pyrrolo[3,2-c]pyridin]-4′(1′H)-one] had a negative logarithm of the IC50 (pIC50) of 8.70.
Still for that read-out and setting: in the case of `Cc1c(-c2ccncc2)[nH]c2c1C(=O)NCC2` [3-methyl-2-pyridin-4-yl-1,5,6,7-tetrahydro-4H-pyrrolo[3,2-c]pyridin-4-one hydrochloride] it was 8.52; in that of `CCC1(CC)CNC(=O)c2cc(-c3ccncc3)[nH]c21` [7,7-diethyl-2-pyridin-4-yl-1,5,6,7-tetrahydro-4H-pyrrolo[3,2-c]pyridin-4-one hydrochloride], 8.15; in that of `CC1(C)CNC(=O)c2cc(-c3ccncc3)[nH]c21` [7,7-dimethyl-2-pyridin-4-yl-1,5,6,7-tetrahydro-4H-pyrrolo[3,2-c]pyridin-4-one hydrochloride], 8.52.
In the case of `O=C1NC(CCc2ccccc2)Cc2[nH]c(-c3ccncc3)cc21` [(6R,6S)-6-(2-phenylethyl)-2-pyridin-4-yl-1,5,6,7-tetrahydro-4H-pyrrolo[3,2-c]pyridin-4-one hydrochloride], the pIC50 was 7.59.
On to `O=C1NC(Cc2ccccc2)Cc2[nH]c(-c3ccncc3)cc21` [(6R,6S)-6-benzyl-2-pyridin-4-yl-1,5,6,7-tetrahydro-4H-pyrrolo[3,2-c]pyridin-4-one], for which the pIC50 is 7.80.
Molecule `O=C1NC(C2CCCCC2)Cc2[nH]c(-c3ccncc3)cc21` [(6R,6S)-6-cyclohexyl-2-pyridin-4-yl-1,5,6,7-tetrahydro-4H-pyrrolo[3,2-c]pyridin-4-one] had a pIC50 of 8.10.
Same read-out and setting: for `O=C1NC(C2CC2)Cc2[nH]c(-c3ccncc3)cc21` [(6R,6S)-6-cyclopropyl-2-pyridin-4-yl-1,5,6,7-tetrahydro-4H-pyrrolo[3,2-c]pyridin-4-one] the value was 8.70.
On to `CC(C)C1Cc2[nH]c(-c3ccncc3)cc2C(=O)N1` [(6R,6S)-6-isopropyl-2-pyridin-4-yl-1,5,6,7-tetrahydro-4H-pyrrolo[3,2-c]pyridin-4-one hydrochloride], for which the pIC50 is 8.05.
In the case of `C[C@H]1Cc2[nH]c(-c3ccncc3)cc2C(=O)N1` [(6S)-6-methyl-2-pyridin-4-yl-1,5,6,7-tetrahydro-4H-pyrrolo[3,2-c]pyridin-4-one], the pIC50 was 7.85.
With `CCC1CNC(=O)c2cc(-c3ccncc3F)[nH]c21` [(7R,7S)-2-(3-fluoropyridin-4-yl)-7-ethyl-1,5,6,7-tetrahydro-4H-pyrrolo[3,2-c]pyridin-4-one], the pIC50 is 9.00.
The molecule `CC(C)CC1CNC(=O)c2cc(-c3ccncc3F)[nH]c21` [(7R,7S)-2-(3-fluoropyridin-4-yl)-7-isobutyl-1,5,6,7-tetrahydro-4H-pyrrolo[3,2-c]pyridin-4-one] had a pIC50 of 8.40.
`CC(C)C1CNC(=O)c2cc(-c3ccncc3F)[nH]c21` [(7R,7S)-2-(3-fluoropyridin-4-yl)-7-isopropyl-1,5,6,7-tetrahydro-4H-pyrrolo[3,2-c]pyridin-4-one] showed a pIC50 of 8.52.
The same measure, in the same setting: in the case of `O=C1NCC(Cc2ccccc2)c2[nH]c(-c3ccncc3)cc21` [(7R,7S)-7-benzyl-2-pyridin-4-yl-1,5,6,7-tetrahydro-4H-pyrrolo[3,2-c]pyridin-4-one] it was 7.77.
Take `CC(C)CC1CNC(=O)c2cc(-c3ccncc3)[nH]c21` [(7R,7S)-7-isobutyl-2-pyridin-4-yl-1,5,6,7-tetrahydro-4H-pyrrolo[3,2-c]pyridin-4-one hydrochloride]: the pIC50 is 8.30.
With `CC(C)C1CNC(=O)c2cc(-c3ccncc3)[nH]c21` [(7R,7S)-7-isopropyl-2-pyridin-4-yl-1,5,6,7-tetrahydro-4H-pyrrolo[3,2-c]pyridin-4-one], the pIC50 was 7.70.
`CC1CNC(=O)c2cc(-c3ccncc3)[nH]c21` [(7R,7S)-7-methyl-2-pyridin-4-yl-1,5,6,7-tetrahydro-4H-pyrrolo[3,2-c]pyridin-4-one hydrochloride] gave a pIC50 of 8.30.
Molecule `CCC(C)C1CNC(=O)c2cc(-c3ccncc3)[nH]c21` [(7R,7S)-7-sec-butyl-2-pyridin-4-yl-1,5,6,7-tetrahydro-4H-pyrrolo[3,2-c]pyridin-4-one] had a pIC50 of 8.52.

A further test deals with cdk2/Cyclin A (Homo sapiens, UniProt P24941). Description: Inhibition assay of cdk2/Cyclin A activity (SPA). The note with it: Cyclin A/CDK2 complex, histone H1 substrate, 10 μM ATP. Type of test: biochemical. As to the method: The inhibiting activity of putative cdk/cyclin inhibitors and the potency of selected compounds may be determined through a method of assay based on the use of the SPA technology (Amersham Pharmacia Biotech).
The assay consists of the transfer of radioactivity labelled phosphate moiety by the kinase to a biotinylated substrate. The resulting 33P-labelled biotinylated product is allowed to bind to streptavidin-coated SPA beads (biotin capacity 130 pmol/mg), and light emitted was measured in a scintillation counter.
Kinase reaction: 4 μM in house biotinylated histone H1 (Sigma #H-5505) substrate, 10 μM ATP (0.1 microCi P^33γ-ATP), 1.1 nM Cyclin A/CDK2 complex, inhibitor in a final volume of 30 μl buffer (TRIS HCl 10 mM pH 7.5, MgCl2 10 mM, DTT 7.5 mM+0.2 mg/ml BSA) were added to each well of a 96 U bottom. After incubation for 60 min at room temperature, the reaction was stopped by addition of 100 μl PBS buffer containing 32 mM EDTA, 500 μM cold ATP, 0.1% Triton X100 and 10 mg/ml streptavidin coated SPA beads. After 20 min incubation, 110 μL of suspension were withdrawn and transferred into 96-well OPTIPLATEs containing 100 μl of 5M CsCl. After 4 hours, the plates were read for 2 min in a Packard TOP-Count radioactivity reader.
IC50 determination: inhibitors were tested at different concentrations ranging from 0.0015 to 10 μM. […]
`O=C1NCCc2[nH]c(-c3ccnc(NC4CCCC4)c3)cc21` [2-[2-(cyclopentylamino)pyridin-4-yl]-1,5,6,7-tetrahydro-4H-pyrrolo[3,2-c]pyridin-4-one]: the pIC50 was 7.40.
